Data set [1] can be described thus: Authentic human urine sample after intake of 4F-MDMB-BINACA, LC-HRMS/MS. Type of data set: in vivo. The following applies: one patient, unknown dose and time point of intake. How it is done:
Human blood and urine collected after a suspected intake of drugs of abuse were submitted to the authors' laboratory for regular clinical toxicological analysis. The blood sample was centrifuged, and plasma was separated. The authors' standard liquid–liquid extraction for human plasma screening was used (Maurer et al., [2016]). Briefly, 1,000 μl of plasma was mixed with 100 μl of internal standard (0.01 μg/μl trimipramine-d3 in methanol) and extracted with 5,000 μl of a mixture of diethyl ether:ethyl acetate (1:1, v/v) after addition of 2,000 μl of saturated sodium sulfate solution. Phase separation was mediated by centrifugation. The organic layer was transferred into a flask and evaporated to dryness at 60°C under reduced pressure. The aqueous residue was then alkalized with 500 μl of 1 M sodium hydroxide and extracted a second time with 5,000 μl of the diethyl ether:ethyl acetate mixture. The organic extract was transferred to the same flask and evaporated as described before. The combined residues were dissolved in 100 μl of methanol and transferred into an autosampler vial, and 5 μl was injected onto the LC-HRMS/MS system. An aliquot of the human urine sample (100 μl) was prepared according to a previous study by precipitation with 500 μl of acetonitrile (Wissenbach et al., [2011]). The mixture was shaken and centrifuged (18,407 × g, 2 min). […]

The target of data set [2] is T1, hCES1b (Homo sapiens, UniProt P23141).
T1 construct: purchased Corning
T1 sequence (P23141 18-567): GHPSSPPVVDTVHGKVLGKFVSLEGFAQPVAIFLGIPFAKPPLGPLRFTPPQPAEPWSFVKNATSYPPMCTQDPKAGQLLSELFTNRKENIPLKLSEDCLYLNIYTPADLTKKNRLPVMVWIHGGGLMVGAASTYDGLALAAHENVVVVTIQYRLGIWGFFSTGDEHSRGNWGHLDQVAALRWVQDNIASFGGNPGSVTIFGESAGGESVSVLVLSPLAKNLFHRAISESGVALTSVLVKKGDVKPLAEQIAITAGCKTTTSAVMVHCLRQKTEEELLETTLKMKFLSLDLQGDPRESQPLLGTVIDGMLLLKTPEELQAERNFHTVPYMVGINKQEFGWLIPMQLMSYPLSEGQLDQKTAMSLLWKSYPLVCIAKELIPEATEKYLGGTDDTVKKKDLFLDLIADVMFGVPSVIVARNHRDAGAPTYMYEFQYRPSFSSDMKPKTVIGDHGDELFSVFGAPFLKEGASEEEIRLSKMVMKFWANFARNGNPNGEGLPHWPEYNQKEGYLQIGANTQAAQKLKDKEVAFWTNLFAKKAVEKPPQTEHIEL
Put plainly: Esterases activity screening, hCES1b. Type of data set: in vitro ADME. On the set-up: key: +, detected; –, not detected. Particulars: 100 μM 4F-MDMB-BINACA, 0.2 mg protein/ml, duplicate. How it is done: Experiments were performed in accordance with a previous study (Meyer et al., [2015]) with minor modifications. The final volume per reaction tube was 100 μl with a final 4F-MDMB-BINACA concentration of 100 μM and enzyme concentration of 0.2 mg protein/ml for hCES1b, hCES1c, and hCES2. Incubations with pHLM and pHLS9 (0.2 mg protein/ml, each) were performed in a similar manner. Additionally, incubations with human plasma (50 μl pooled human plasma, 40 μl phosphate buffer, and 10 μl substrate) were performed. The reactions were started by adding the enzyme-containing preparation and terminated with an equal volume of ice-cold acetonitrile containing diazepam-d5 (100 μM) as an internal standard. Only plasma incubations were terminated by addition of a three-fold volume of ice-cold acetonitrile. The reaction mixtures were centrifuged at 18,407 × g for 15 min, and then supernatants were transferred to autosampler vials, and 5 μl was injected onto the LC-HRMS/MS system. Negative control incubations without enzyme were prepared to identify non-metabolically formed compounds. All incubations were done in duplicate.

With `COC(=O)C(NC(=O)c1nn(CCCCF)c2ccccc12)C(C)(C)C` (centres unmarked) [4F-MDMB-BINACA, methyl 2-[1-(4-fluorobutyl)-1H-indazole-3-carbonyl]amino-3,3-dimethylbutanoate], the “Detectability of the parent compound in urine” value in data set [1] was “barely detectable”.

With `O=C(O)c1nn(CCCCF)c2ccccc12` [MB1], the “Detection of metabolite in incubation with hCES1b” value in data set [2] is given as “–”.

The values above are taken from article PMC7380166, “How to Study the Metabolism of New Psychoactive Substances for the Purpose of Toxicological Screenings—A Follow-Up Study Comparing Pooled Human Liver S9, HepaRG Cells, and Zebrafish Larvae” (Frontiers in Chemistry, 2020).
